From PubChem BioAssay (NCI)
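Protocol summary: plate cells (96-well), add compound at 5 concentrations, incubate 48 h, interpolate endpoints linearly. TGI denotes the concentration required for complete inhibition of growth.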

What was measured:
Assay in all cases: growth of human tumour cells (NCI), 48 h
786-0 renal = system: 786-0 renal
A498 renal = system: A498 renal
A549 NSCLC = system: A549 NSCLC
ACHN renal = system: ACHN renal
BT-549 breast = system: BT-549 breast
CAKI-1 renal = system: CAKI-1 renal
CCRF-CEM leukemia = system: CCRF-CEM leukemia
COLO 205 colon = system: COLO 205 colon
DU-145 prostate = system: DU-145 prostate
EKVX NSCLC = system: EKVX NSCLC
HCC-2998 colon = system: HCC-2998 colon
HCT-116 colon = system: HCT-116 colon
HCT-15 colon = system: HCT-15 colon
HL-60(TB) leukemia = system: HL-60(TB) leukemia
HOP-62 NSCLC = system: HOP-62 NSCLC
HOP-92 NSCLC = system: HOP-92 NSCLC
HS 578T breast = system: HS 578T breast
HT29 colon = system: HT29 colon
IGROV1 ovarian = system: IGROV1 ovarian
K-562 leukemia = system: K-562 leukemia
KM12 colon = system: KM12 colon
LOX IMVI melanoma = system: LOX IMVI melanoma
M14 melanoma = system: M14 melanoma
MALME-3M melanoma = system: MALME-3M melanoma
MCF7 breast = system: MCF7 breast
MDA-MB-231 breast = system: MDA-MB-231 breast
MDA-MB-435 = system: MDA-MB-435
MDA-N = system: MDA-N
MOLT-4 leukemia = system: MOLT-4 leukemia
NCI-H226 lung = system: NCI-H226 lung
NCI-H23 lung = system: NCI-H23 lung
NCI-H460 lung = system: NCI-H460 lung
NCI-H522 lung = system: NCI-H522 lung
NCI/ADR-RES ovarian = system: NCI/ADR-RES ovarian
OVCAR-3 ovarian = system: OVCAR-3 ovarian
OVCAR-4 ovarian = system: OVCAR-4 ovarian
OVCAR-5 ovarian = system: OVCAR-5 ovarian
OVCAR-8 ovarian = system: OVCAR-8 ovarian
PC-3 prostate = system: PC-3 prostate
RPMI-8226 leukemia = system: RPMI-8226 leukemia
RXF 393 renal = system: RXF 393 renal
SF-268 CNS = system: SF-268 CNS
SF-295 CNS = system: SF-295 CNS
SF-539 CNS = system: SF-539 CNS
SK-MEL-2 melanoma = system: SK-MEL-2 melanoma
SK-MEL-28 melanoma = system: SK-MEL-28 melanoma
SK-MEL-5 melanoma = system: SK-MEL-5 melanoma
SK-OV-3 ovarian = system: SK-OV-3 ovarian
SN12C renal = system: SN12C renal
SNB-19 CNS = system: SNB-19 CNS
SNB-75 CNS = system: SNB-75 CNS
SR leukemia = system: SR leukemia
SW-620 colon = system: SW-620 colon
T-47D breast = system: T-47D breast
TK-10 renal = system: TK-10 renal
U251 CNS = system: U251 CNS
UACC-257 melanoma = system: UACC-257 melanoma
UACC-62 melanoma = system: UACC-62 melanoma
UO-31 renal = system: UO-31 renal

## CCc1nc(N)nc(N)c1-c1ccc2c(c1)nnn2CCc1ccccc1
786-0 renal
  TGI: 64.4 µM
A498 renal
  TGI: > 79 µM
A549 NSCLC
  TGI: > 100 µM
ACHN renal
  TGI: > 70.1 µM
BT-549 breast
  TGI: > 69 µM
CAKI-1 renal
  TGI: > 100 µM
CCRF-CEM leukemia
  TGI: > 69.9 µM
COLO 205 colon
  TGI: 42 µM
DU-145 prostate
  TGI: > 65.2 µM
EKVX NSCLC
  TGI: > 75.8 µM
HCC-2998 colon
  TGI: 51.4 µM
HCT-116 colon
  TGI: > 61.1 µM
HCT-15 colon
  TGI: > 63.2 µM
HL-60(TB) leukemia
  TGI: 35.3 µM
HOP-62 NSCLC
  TGI: > 69.9 µM
HOP-92 NSCLC
  TGI: > 79.6 µM
HS 578T breast
  TGI: > 85 µM
HT29 colon
  TGI: 56.1 µM
IGROV1 ovarian
  TGI: > 70.3 µM
K-562 leukemia
  TGI: > 51.1 µM
KM12 colon
  TGI: > 64.1 µM
LOX IMVI melanoma
  TGI: > 65 µM
M14 melanoma
  TGI: > 65.9 µM
MALME-3M melanoma
  TGI: 49.5 µM
MCF7 breast
  TGI: > 70 µM
MDA-MB-231 breast
  TGI: > 72.4 µM
MDA-MB-435
  TGI: > 68.7 µM
MDA-N
  TGI: > 68.3 µM
MOLT-4 leukemia
  TGI: 50.2 µM
NCI-H226 lung
  TGI: > 71.8 µM
NCI-H23 lung
  TGI: > 64.9 µM
NCI-H460 lung
  TGI: 51.2 µM
NCI-H522 lung
  TGI: 33.9 µM
NCI/ADR-RES ovarian
  TGI: 68.8 µM
OVCAR-3 ovarian
  TGI: > 70.1 µM
OVCAR-4 ovarian
  TGI: > 100 µM
OVCAR-5 ovarian
  TGI: > 82.5 µM
OVCAR-8 ovarian
  TGI: > 64.9 µM
PC-3 prostate
  TGI: > 64.7 µM
RPMI-8226 leukemia
  TGI: 51.8 µM
RXF 393 renal
  TGI: > 73.8 µM
SF-268 CNS
  TGI: > 64.2 µM
SF-295 CNS
  TGI: 57.1 µM
SF-539 CNS
  TGI: > 68.9 µM
SK-MEL-2 melanoma
  TGI: 61.9 µM
SK-MEL-28 melanoma
  TGI: > 71.5 µM
SK-MEL-5 melanoma
  TGI: 32.2 µM
SK-OV-3 ovarian
  TGI: > 75.2 µM
SN12C renal
  TGI: > 73.5 µM
SNB-19 CNS
  TGI: 86.4 µM
SNB-75 CNS
  TGI: 64.1 µM
SR leukemia
  TGI: 49.5 µM
SW-620 colon
  TGI: > 66.5 µM
T-47D breast
  TGI: 64.5 µM
TK-10 renal
  TGI: > 83.7 µM
U251 CNS
  TGI: > 70.5 µM
UACC-257 melanoma
  TGI: > 68.8 µM
UACC-62 melanoma
  TGI: > 65.7 µM
UO-31 renal
  TGI: > 60.6 µM
